From paper PMC9421654, “Discovery of Substituted Di(pyridin-2-yl)-1,2,4-thiadiazol-5-amines as Novel Macrofilaricidal Compounds for the Treatment of Human Filarial Infections” (Journal of Medicinal Chemistry, 2022) come the findings set out here.

In brackets after ≈: the same amount, converted by molar mass. Read-outs that look alike come from different tables or passages of the source. Marks after values point to notes of the source that are not given here.

Data set [1] in a line: Kinetic solubility measurement. To be noted: 10 mM DMSO stock solutions. Format: physicochemical. The gist of the method:
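Human and rat liver microsomes (0.3 mg/mL) with 1 mM NADPH and 3µM substrate, 30 minutes at 37 °C in pH 7.4 phosphate/MgCl2, triplicate; LC-MS/MS percentage remaining. LogD: octanol/aqueous buffer (pH 7.4, 2.2, 6.8, 5), 24 h shaking at room temperature. Kinetic solubility: 200 µM, 2% DMSO, 24 h, filtered.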

Data set [2] in a line: Liver S9 metabolic stability assay, human. Format: in vitro ADME. To be noted: 3 μM, 60 min. The gist of the method: (§1)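 Rat and human liver S9 (0.75 and 1.2 mg/ml) with 1 mM NADPH, 0.5 mM UDPGA, 2.5 mM GSH, 0.05 mg/ml PAPS, 3µM substrate, 60 min at 37 °C in Tris/MgCl2 pH 7.4. Mouse microsomes 0.3 mg/mL, 1 mM NADPH, 3µM, 30 min, phosphate pH 7.4. LC-MS/MS, % remaining, triplicate.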

Another data set is described as follows: Mouse pharmacokinetics. Format: in vivo. The settings on record: for Vd: in vivo, read-out: Vdss; for Vd / Cl: IV 2 mg/kg; for bioavailability: PO 10 mg/kg vs IV 2 mg/kg. The source says:
All animal experiments were approved by the Institutional Animal Care and Use Committee (IACUC) of Bristol Myers Squibb.

Data set [3] deals with T1, hERG potassium channels (KCNH2, expressed in HEK293 cells) (Homo sapiens, UniProt Q12809).
T1 construct: expressed in transfected cells
T1 sequence (Q12809 whole entry): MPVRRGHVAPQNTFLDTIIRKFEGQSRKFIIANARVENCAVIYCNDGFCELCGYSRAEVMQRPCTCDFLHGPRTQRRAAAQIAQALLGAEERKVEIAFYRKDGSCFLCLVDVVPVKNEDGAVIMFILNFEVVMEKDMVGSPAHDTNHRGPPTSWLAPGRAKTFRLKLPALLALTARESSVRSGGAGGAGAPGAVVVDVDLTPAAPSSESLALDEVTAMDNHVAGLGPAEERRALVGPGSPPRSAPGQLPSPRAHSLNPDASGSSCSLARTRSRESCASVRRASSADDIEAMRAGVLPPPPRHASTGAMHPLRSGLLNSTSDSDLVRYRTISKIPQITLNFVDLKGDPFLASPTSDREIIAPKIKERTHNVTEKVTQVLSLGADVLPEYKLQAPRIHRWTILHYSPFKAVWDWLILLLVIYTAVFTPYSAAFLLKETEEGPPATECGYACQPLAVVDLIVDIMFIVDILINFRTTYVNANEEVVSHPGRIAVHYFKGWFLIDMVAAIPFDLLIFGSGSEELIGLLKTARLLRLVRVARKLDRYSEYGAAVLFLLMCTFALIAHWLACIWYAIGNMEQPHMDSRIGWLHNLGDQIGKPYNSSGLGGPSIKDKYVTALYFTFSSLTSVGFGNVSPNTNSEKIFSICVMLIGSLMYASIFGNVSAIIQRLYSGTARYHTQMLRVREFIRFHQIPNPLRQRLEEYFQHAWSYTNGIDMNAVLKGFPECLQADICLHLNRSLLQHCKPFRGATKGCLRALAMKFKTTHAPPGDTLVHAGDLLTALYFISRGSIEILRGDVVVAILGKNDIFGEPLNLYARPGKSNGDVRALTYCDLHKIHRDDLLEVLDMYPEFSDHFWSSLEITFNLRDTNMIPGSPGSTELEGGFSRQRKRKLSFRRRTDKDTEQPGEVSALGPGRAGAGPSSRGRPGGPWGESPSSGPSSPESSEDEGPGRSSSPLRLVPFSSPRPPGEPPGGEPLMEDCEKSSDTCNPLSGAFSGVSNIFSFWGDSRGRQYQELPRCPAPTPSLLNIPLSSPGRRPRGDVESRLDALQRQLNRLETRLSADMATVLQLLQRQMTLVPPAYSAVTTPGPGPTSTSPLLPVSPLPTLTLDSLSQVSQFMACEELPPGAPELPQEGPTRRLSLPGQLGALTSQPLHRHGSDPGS
The data set can be described thus: hERG inhibition. To be noted: supplement. Format: cell-based. In general terms: The hERG channel carries a current that helps repolarise heart muscle cells.

In data set [4] the test system is L. sigmodontis adult worms. To be noted: for adult worm burden reduction: figure prints reduction as negative value; for reduction of adult worm burden: mice, 30 mg/kg BID.
Data set [5] in a line: Liver S9 metabolic stability assay, rat. Type of data set: in vitro ADME. The settings on record: 3 μM, 60 min. Put shortly:
as §1

In data set [6] the test system is O. volvulus L5 larvae. The data set can be described thus: O. volvulus L5 ex vivo assay, motility. Type of data set: cell-based. The settings on record: Onchocerca volvulus, 504 h, read-out: O. volvulus L5 % inhibition of motility. The protocol:
O. volvulus larvae (L4) were prepared using cryopreserved O. volvulus L3 cultured in a medium containing 1:1 NCTC-109 and IMDM (Iscove’s modified Dulbecco’s medium) supplemented with Glutamax (1×) and 2× Antibiotic-Antimycotic (Life Technologies). This culturing medium was then added in transwell 24-well plates containing human umbilical vein endothelial cell (HUVEC) monolayers, containing the L4 larvae. A week prior to conducting an assay, the cultured O. volvulus larvae (L5) were transferred into a Petri dish containing fresh medium. Aliquots of 8–10 worms were retrieved from the Petri dish and placed inside new transwells over newly seeded HUVEC monolayers in the medium described above. After the transfer of O. volvulus L5 to the plates, the test compounds were dissolved in DMSO, added to each well, and incubated at 37 °C in a 5% CO2. The media containing freshly prepared compounds were partially replaced every 2–3 days for 14 days. After 14 days, the media were completely replaced. The untreated control contains the media described above with a final concentration of 0.05% DMSO. The motility was measured every 2–3 days with the following scale: 100% motility, constant coiling movement; 75% motility, slower coiling; 50% motility, slow and intermittent movement; 25% motility, very slow movement or twitching; and 0% motility, no movement. The motility was measured visually by two operators. On day 28, the viability of O. volvulus L5 was measured by MTT. Following washout and incubation during 1 h in PBS under 5% CO2, worms were observed under an inverted microscope. Worms were considered dead if no staining or less than 50% within the worm was observed. Otherwise, if worms stained blue or more than 50% stained, then they are considered alive. All test treatments were performed in duplicates. Significance was determined using a t test.

Data set [7] relates to O. volvulus L5 larvae. The data set can be described thus: O. volvulus L5 ex vivo assay, MTT viability. Type of data set: cell-based, Onchocerca volvulus. The settings on record: Day 21, 1 uM. The protocol:
This culturing medium was then added in transwell 24-well plates containing human umbilical vein endothelial cell (HUVEC) monolayers, containing the L4 larvae. A week prior to conducting an assay, the cultured O. volvulus larvae (L5) were transferred into a Petri dish containing fresh medium. […] After the transfer of O. volvulus L5 to the plates, the test compounds were dissolved in DMSO, added to each well, and incubated at 37 °C in a 5% CO2. The media containing freshly prepared compounds were partially replaced every 2–3 days for 14 days. After 14 days, the media were completely replaced. The untreated control contains the media described above with a final concentration of 0.05% DMSO. […] The motility was measured visually by two operators. […] Following washout and incubation during 1 h in PBS under 5% CO2, worms were observed under an inverted microscope. Worms were considered dead if no staining or less than 50% within the worm was observed. Otherwise, if worms stained blue or more than 50% stained, then they are considered alive. All test treatments were performed in duplicates. Significance was determined using a t test.

The target of the next data set is CYP2C9 (Homo sapiens, UniProt P11712). The data set can be described thus: Cytochrome P450 inhibition, 2C9. Type of data set: in vitro ADME. To be noted: read-out: Cytochrome P450s IC50, 2C9.
Chain of CYP2C9 (P11712 whole entry): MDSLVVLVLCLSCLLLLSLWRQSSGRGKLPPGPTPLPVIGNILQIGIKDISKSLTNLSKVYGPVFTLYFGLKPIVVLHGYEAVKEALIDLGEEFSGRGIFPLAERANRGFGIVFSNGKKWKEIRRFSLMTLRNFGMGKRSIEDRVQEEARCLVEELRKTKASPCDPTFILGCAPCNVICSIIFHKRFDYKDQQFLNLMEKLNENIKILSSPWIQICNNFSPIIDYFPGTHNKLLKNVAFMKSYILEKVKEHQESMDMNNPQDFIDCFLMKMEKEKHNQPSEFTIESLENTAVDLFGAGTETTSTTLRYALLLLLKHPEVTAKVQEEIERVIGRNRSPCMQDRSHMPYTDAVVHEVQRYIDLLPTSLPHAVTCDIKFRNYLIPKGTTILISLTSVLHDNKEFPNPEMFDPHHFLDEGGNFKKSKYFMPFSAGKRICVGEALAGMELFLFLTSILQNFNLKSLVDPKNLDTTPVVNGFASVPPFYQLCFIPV
A further data set deals with T2, hERG (Homo sapiens, UniProt Q12809).
T2 construct: expressed in transfected cells
T2 sequence (Q12809 whole entry): as the sequence (Q12809 whole entry) above
The data set can be described thus: hERG inhibition. Type of data set: cell-based. The settings on record: human.

Data set [8] can be described thus: Plasma protein binding, rat. Format: in vitro ADME. The settings on record: read-out: Plasma Protein Binding %, r (converted).
Data set [9] is described as follows: Plasma protein binding, human. Format: in vitro ADME. To be noted: read-out: Plasma Protein Binding %, h (converted).
Setting [10] is: male CD-1 mouse, PO 30 mg/kg suspension.
Where [11] appears, read: female BALB/c mouse, PO 30 mg/kg.
Setting [12] is: male CD-1 mouse, PO 10 mg/kg suspension.
The mark [13] stands for this setting: plasma, male CD-1 mouse, PO 10 mg/kg suspension, read-out: Tmax.

The kinetic solubility is the concentration staying in solution when a stock, usually in DMSO, is diluted into the medium. Broadly, the Cmax is the maximum level reached in the sampled fluid or tissue. One may read the Tmax as the time at which the peak concentration occurs. By IC50 is commonly meant the concentration needed to halve the response being measured. In data set [1], `Cc1cccnc1Nc1nc(-c2ccc(OC(C)C)cn2)ns1` [Compound 10, 3-(5-Isopropoxypyridin-2-yl)-N-(3-methylpyridin-2-yl)-1,2,4-thiadiazol-5-amine] showed a solubility (kinetic) at 24 h of 3.2 µM (≈ 1.05 µg/mL). Also, in data set [2], the “Human S9 metabolic stability” value amounted to 100 % remaining. Moreover, in “Mouse pharmacokinetics” (setting [10]), the “AUC(0-inf)” value was 26.0 ± 9.0 µM·h, the peak level (Cmax) was 8.26 ± 2.6 µM and the Tmax is 1.0 ± 0.6 h. This compound also had an IC50 in data set [3] of more than 30 µM. Moreover, the tolerability in mice entry in data set [4] (reason for lowering the dose from 30 to 10 mg/kg) was “tolerability issues”. In addition, in data set [5], the “Rat S9 metabolic stability” value stood at 100 % remaining.
One may read the inhibition as the relative decrease from the control value, in per cent. Take `Cc1cccnc1Nc1nc(-c2ccc(OC3CC3)cn2)ns1` [Compound 11, 3-(5-Cyclopropoxypyridin-2-yl)-N-(3-methylpyridin-2-yl)-1,2,4-thiadiazol-5-amine]: in data set [1], the solubility (kinetic) at 24 h amounted to 1.84 µM (≈ 0.599 µg/mL). Besides, the inhibition at 1 µM in the data set on O. volvulus L5 larvae [6] came to 100%. The “Human S9 metabolic stability” value in data set [2] amounted to 76 % remaining. In [3], this compound came in with an IC50 of more than 30 µM. In the data set with O. volvulus L5 larvae [7], the “O. volvulus L5 % inhibition of viability” value amounted to 100%. In data set [5], the “Rat S9 metabolic stability” value is 61 % remaining.
In data set [1], `CC(C)c1ccnc(-c2nsc(Nc3ncccc3C(F)(F)F)n2)c1` [Compound 27] gave a solubility (kinetic) at 24 h of 1.6 µM (≈ 0.585 µg/mL). Also, in the data set with O. volvulus L5 larvae [6], the inhibition at 1 µM stood at 100%. In addition, the “Human S9 metabolic stability” value in [2] is given as 45 % remaining. Further, in data set [5], the “Rat S9 metabolic stability” value turned out to be 27 % remaining.
By bioavailability is commonly meant dose-corrected exposure relative to a reference, in per cent. Regarding `CC(C)Oc1ccc(-c2nsc(Nc3ncccc3N(C)C)n2)nc1` [Compound 31, N^2-(3-(5-Isopropoxypyridin-2-yl)-1,2,4-thiadiazol-5-yl)-N3,N3-dimethylpyridine-2,3-diamine], the kinetic solubility at 24 h in data set [1] is 22.5 µM (≈ 8.02 µg/mL). Besides, the inhibition at 1 µM in the data set on O. volvulus L5 larvae [6] was 100%. Also, the “Human S9 metabolic stability” value in [2] was found to be 86 % remaining. Moreover, the IC50 at CYP2C9 came out at 5.5 µM; in data set [3] it was 8 µM; against hERG, 11.4 µM. Further, the Kp at 2 h in “Mouse pharmacokinetics” (brain and plasma, female BALB/c mouse, PO 30 mg/kg, 2 h, read-out: brain/plasma [b]/[p]) is 1.1. Also, the “AUC(0-inf)” value is 4.66 ± 0.54 µM·h in “Mouse pharmacokinetics” (setting [11]) and 0.94 ^h μM·h in “Mouse pharmacokinetics” (setting [12]). Also, the Cmax in “Mouse pharmacokinetics” (setting [11]) was 5.18 µM; in “Mouse pharmacokinetics” (setting [12]), 0.65 µM. Further, the Tmax in the data set “Mouse pharmacokinetics” (setting [11]) and in the data set “Mouse pharmacokinetics” (setting [13]) was 0.5 h each time. The Vd in “Mouse pharmacokinetics” (male CD-1 mouse) came to 3.01 L/kg. In “Mouse pharmacokinetics” (male CD-1 mouse), this compound showed a Cl of 62.9 mL/min/kg. The bioavailability in “Mouse pharmacokinetics” (plasma, male CD-1 mouse) came out at 13%. The “O. volvulus L5 % inhibition of viability” value with O. volvulus L5 larvae [7] worked out at 100%. In addition, the fraction unbound in [8] and in data set [9] was less than 0.01 in each case. Besides, the “adult worm burden reduction” value in [4] (mice infected SC with 40 L3 larvae, 30 mg/kg BID 7d oral) is -97.1%. Besides, the “reduction of adult worm burden” value in data set [4] (6 days of dosing) was found to be 97%. The “Rat S9 metabolic stability” value in [5] stood at 79 % remaining.
Take `CN(C)c1cccnc1Nc1nc(-c2ccc(OC3CC3)cn2)ns1` [Compound 32]: in [1], the kinetic solubility at 24 h came out at 8.92 µM (≈ 3.16 µg/mL). Besides, the inhibition at 1 µM in the data set on O. volvulus L5 larvae [6] stood at 100%. Also, the “Human S9 metabolic stability” value in [2] amounted to 100 % remaining. In “Mouse pharmacokinetics” (setting [10]), the “AUC(0-inf)” value was determined as 3.85 ± 0.76 µM·h, the Cmax stood at 2.34 ± 0.52 µM and the Tmax came out at 0.5 ± 0.00 h. The “O. volvulus L5 % inhibition of viability” value with O. volvulus L5 larvae [7] was found to be 83%. Further, in [4] (7 days of dosing), the “reduction of adult worm burden” value turned out to be 70%. In data set [4] (naturally infected mice, 30 mg/kg BID 6d oral), the “adult worm burden reduction” value is reported as -69.9%. The “Rat S9 metabolic stability” value in data set [5] is given as 91 % remaining.
`CC(=O)N(C)c1cccnc1Nc1nc(-c2ccc(OC(C)C)cn2)ns1` [Compound 47, N-(2-((3-(5-Isopropoxypyridin-2-yl)-1,2,4-thiadiazol-5-yl)amino)pyridin-3-yl)-N-methylacetamide]: the solubility (kinetic) at 24 h in [1] was 109 µM (≈ 41.9 µg/mL). Besides, the inhibition at 1 µM in the data set on O. volvulus L5 larvae [6] (Day 21, 1 uM) amounted to 100%. The IC50 is 5.7 µM at CYP2C9 and more than 30 µM against hERG. The Kp in “Mouse pharmacokinetics” (brain and plasma, male CD-1 mouse, PO 30 mg/kg, based on AUC0-t, read-out: brain/plasma [b]/[p]) was 0.08. Further, the Vd in the data set “Mouse pharmacokinetics” (male CD-1 mouse) was found to be 0.74 ± 0.08 L/kg. In the data set “Mouse pharmacokinetics” (male CD-1 mouse), this compound displayed a Cl of 3.6 ± 0.22 mL/min/kg. Moreover, the “AUC(0-inf)” value was 68.1NC ^j μM·h in the data set “Mouse pharmacokinetics” (setting [12]) and 121 ^h μM·h in “Mouse pharmacokinetics” (setting [10]). Besides, the Cmax was found to be 5.27 ± 0.83 µM in the data set “Mouse pharmacokinetics” (setting [12]) and 13.9 µM in the data set “Mouse pharmacokinetics” (setting [10]). The Tmax in “Mouse pharmacokinetics” (setting [10]) is 0.50 ^h; in the data set “Mouse pharmacokinetics” (setting [13]), 4 ± 2.8 h. The same compound came in with a bioavailability in “Mouse pharmacokinetics” (plasma, male CD-1 mouse) of 57%. Further, the “O. volvulus L5 % inhibition of viability” value with O. volvulus L5 larvae [7] is 100%. Further, the fraction unbound is 0.05 in [8] and 0.093 in data set [9].
As to `CC(C)Oc1ccc(-c2nsc(Nc3ncccc3N(C)C(=O)C3CC3)n2)nc1` [Compound 50, N-(2-((3-(5-Isopropoxypyridin-2-yl)-1,2,4-thiadiazol-5-yl)amino)pyridin-3-yl)-N-methylcyclopropanecarboxamide], in data set [1], the kinetic solubility at 24 h worked out at 2.71 µM (≈ 1.11 µg/mL). Moreover, in the data set on O. volvulus L5 larvae [6] (Day 21, 1 uM), the inhibition at 1 µM turned out to be 100%. The Kp in “Mouse pharmacokinetics” (male, CD-1, mouse, brain and plasma, brain to plasma ratio, dose not given, read-out: [b]/[p]) is 0.11. Besides, the “O. volvulus L5 % inhibition of viability” value in the data set with O. volvulus L5 larvae [7] is 100%.
